Experimental data as given in paper PMC4108065, “Inflammation and pancreatic cancer: molecular and functional interactions between S100A8, S100A9, NT-S100A8 and TGFβ1” (Cell Communication and Signaling : CCS, 2014).

Legend:
BxPC3 [Ca2+]i = assay: Intracellular calcium, fluo-4 epifluorescence, BxPC3; type: cell-based, human; settings: for alterations in [Ca2+]i: BxPC3, single treatment, monitored for 500 seconds, 0.02 ng/ml TGFβ1, 10 nM S100A8, 10 nM S100A9
Method: (§1) BxPC3 and MiaPaCa2 cells, seeded (80 × 10^3 cells) on coverslips that had been inserted within each well of six well culture plates, were kept in their respective complete media for 24 hours. Coverslips were then incubated for 10 min at 37°C with 3 μM fluo-4 AM (Invitrogen S.R.L.) in an imaging buffer containing 137 mM NaCl, 5 mM KCl, 1.2 mM MgCl2, 0.44 mM KH2PO4, 4.2 mM NaHCO3, 5 mM glucose, and 20 mM HEPES pH 7.4. The cells were carefully washed with the imaging buffer after its removal. Calcium oscillations were then analyzed by means of an inverted epifluorescence microscope equipped with a top stage incubator (Tokai Hit INU-F1, Tokai Hit, Shizuoka-Ken, Japan) in order to keep cells in the optimal culturing environment. As an illumination source, we used a mercury arc discharge lamp and selected excitation and emission wavelengths with an FITC filter cube (EX 465–495 DM505 EM 515–555 nm). Use was made of an 60X1.45NA objective (Nikon Instruments S.P.A., Firenze, Italy) and, in order to minimize phototoxicity and photobleaching, a back-thinned electron multiplied CCD camera C9100-13 Imagem (Hamamatsu Photonics Italia S.R.L., Milano, Italy). After the first minute, required to achieve optimal culture conditions, intracellular fluorescence was continuously monitored (3 frames/sec) for 12 min. In all experiments, […], the cells were maintained in imaging buffer for the first 2 minutes, after which they were stimulated with 10 nM S100A8, 10 nM S100A9 and 50 nM NT-S100A8, alone or in combination with 0.02 ng/ml TGFβ1. For all stimuli, additions were made directly to the microscope chamber without interrupting the recording. The fluorescence signal was quantified by measuring the mean pixel value of a manually selected cellular area for each frame of the image stack using the HCimage system (Hamamatsu Photonics Italia S.R.L.). For all the experimental conditions, at least 3 independents sets of experiments were performed.

MiaPaCa2 [Ca2+]i = assay: Intracellular calcium, fluo-4 epifluorescence, MiaPaCa2; type: cell-based, human; settings: for [Ca2+]i variation per minute per cell: MiaPaCa2, 200 to 480 second interval, vs control cells, One-Way ANOVA, Bonferroni; for effect on the [Ca2+]i decrement induced by TGFβ1: MiaPaCa2, combined with 0.02 ng/ml TGFβ1, 200 to 480 second interval
Method: as §1

BxPC3 = assay: XTT cell viability assay, BxPC3; type: cell-based, human; settings: 48 hours, TGFβ1 0.02 ng/ml, NT-S100A8 50 nM, S100A8 10 nM, S100A9 10 nM, alone or combined, at least three independent experiments in quadruplicate
Method: (§2) BxPC3, Capan1, MiaPaCa2, Panc1 and BxPC3-SMAD4+ cells were seeded (2000 cells per well) in 96-well cell culture plates and cultured in complete media for 24 hours. Media were then replaced with fresh cell culture media in absence (control) or in presence of TGFβ1 (0.02 ng/ml) and NT-S100A8 (50 nM), alone or combined or in absence (control) or in presence of TGFβ1 (0.02 ng/ml), S100A8 (10 nM) and S100A9 (10 nM) alone or combined. Cell growth was assessed after 48 hours using the XTT cell viability test (Roche, Milano, Italy). At least three independent experiements, each made in quadruplicate, were run. The results were expressed as percentage with respect to the median Abs450nm of control cells run in the same experimental set.

Panc1 = assay: XTT cell viability assay, Panc1; type: cell-based, human; settings: 48 hours, TGFβ1 0.02 ng/ml, NT-S100A8 50 nM, S100A8 10 nM, S100A9 10 nM, alone or combined, at least three independent experiments in quadruplicate
Method: as §2

TGFβ1 = target: T1, TGFβ1 (Homo sapiens, UniProt P01137); assay: Molecular interactions by MALDI-TOF/MS and co-immunoprecipitation; type: binding; settings: for homo-oligomer formation: 11.3 μM with Ca2+; for homo-oligomer formation / hetero-dimer formation with TGFβ1: overnight, MALDI-TOF/MS; for co-immunoprecipitation with TGFβ1: 1.6 μM equimolar with CaCl2, 37°C overnight, IP anti-S100A8 or anti-S100A9, WB TGFβ1; for hetero-dimer formation with TGFβ1: 1:1 molar ratio (11.3 μM) with Ca2+
T1 construct: purchased ProSpec-Tany TechnoGene
Method: Co-immunoprecipitation experiments were performed using protein G-Sepharose (GE Healthcare Technologies). TGFβ1 (1.6 μM) was incubated in equimolar concentrations with S100A8 or S100A9 at 37°C overnight in the presence of equimolar CaCl2. The mixtures were then incubated for 2 h with anti-S100A8 polyclonal or anti-S100A9 monoclonal antibodies (Santa Cruz Biotechnology) preadsorbed to protein G. Immunoprecipitates, washed three times in 10 mM Tris HCl containing 40 mM NaCl, pH 7.5, were boiled in an SDS-PAGE sample buffer before electrophoresis on 4–12% NuPAGE®NovexBis-Tris SDS–PAGE gels. After protein transfer, nitrocellulose membranes were blotted with anti-TGFβ1 antibody (Cell Signaling Technology).
S100A8, S100A9 and TGFβ1 and calcium ions (CaCl2) were mixed at an equimolar concentration (11.3 μM) in an aqueous solution. Each mixture was incubated overnight at 37°C prior to MALDI-TOF/MS analysis. S100A8, S100A9 and TGFβ1 mixtures were diluted 1/10 in 50 μL of 0.1% TFA aqueous solution, after which 5 microliters of each dilution were added to 5 μl of Sinapinic acid (SA); 1 μl of the resulting mixture was deposited in duplicate on the steel sample holder and allowed to dry. External mass calibration (Protein Calibration Standard II, BrukerDaltonics) was based on monoisotopic values of [M + H] + of Trypsinogen, Protein A, Albumin-Bovine (BSA), at m/z 23982, 44613, 66500, respectively. MALDI-TOF/MS measurements were performed using an Ultraflex II MALDI-TOF instrument (BrukerDaltonics), operating in linear positive ion mode. Ions were formed using a pulsed UV laser (λ = 337 nm) beam. The instrumental conditions were: IS1 = 25 kV; IS2 = 23.35 kV; delay time = 70 nsec. All chemicals and solvents were purchased from Sigma-Aldrich (Sigma Aldrich). One spectrum was collected for each sample, an average of 1,000 laser shots being obtained from the respective two replicate spots.

T1 sequence (P01137 279-390 limits assumed): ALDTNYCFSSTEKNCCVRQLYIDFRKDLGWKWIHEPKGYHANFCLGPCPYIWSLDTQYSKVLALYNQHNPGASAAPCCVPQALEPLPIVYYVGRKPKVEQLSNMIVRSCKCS

## NT-S100A8: 14 N-terminal aminoacid peptide of S100A8, isolated from PDAC tissues (MLTELEKALNSIID; UniProt P05109 1-14, looked up, fragment)
BxPC3 [Ca2+]i; BxPC3, combination with 0.02 ng/ml TGFβ1
  effect of TGFβ1 on the induced [Ca2+]i oscillations: synergized and accelerated by TGFβ1
MiaPaCa2 [Ca2+]i
  [Ca2+]i variation per minute per cell: significant decrement of [Ca^2+]i

## TGFβ1: transforming growth factor beta 1 (ProSpec-Tany TechnoGene)
BxPC3
  BxPC3 % to Control Mean±SEM: 96.85 ± 5.02 % to Control
Panc1
  Panc1 % to Control Mean± SEM: 88.31 ± 3.68 % to Control
BxPC3 [Ca2+]i
  alterations in [Ca2+]i: did not determine evident alterations in [Ca^2+]i
MiaPaCa2 [Ca2+]i
  [Ca2+]i variation per minute per cell: significant decrement of [Ca^2+]i
TGFβ1
  homo-oligomer formation: formed homo-dimers and homo-trimers

## S100A8: inflammatory calcium binding protein S100A8 (ProSpec-Tany TechnoGene)
BxPC3
  BxPC3 % to Control Mean±SEM: 111.45±5.92 % to Control
Panc1
  Panc1 % to Control Mean± SEM: 93.16 ± 3.65 % to Control
BxPC3 [Ca2+]i
  alterations in [Ca2+]i: did not determine evident alterations in [Ca^2+]i
MiaPaCa2 [Ca2+]i
  [Ca2+]i variation per minute per cell: significant decrement of [Ca^2+]i
  effect on the [Ca2+]i decrement induced by TGFβ1: partly counteracted
TGFβ1
  co-immunoprecipitation with TGFβ1: TGFβ1 was detected
  homo-oligomer formation: formed homo-dimers
  hetero-dimer formation with TGFβ1: formed hetero-dimers not only between themselves, but also with TGFβ1

## S100A9: inflammatory calcium binding protein S100A9, S100A8 binding partner
BxPC3
  BxPC3 % to Control Mean±SEM: 103.53± 5.18 % to Control
Panc1
  Panc1 % to Control Mean± SEM: 96.72± 4.43 % to Control
BxPC3 [Ca2+]i
  alterations in [Ca2+]i: did not determine evident alterations in [Ca^2+]i
MiaPaCa2 [Ca2+]i
  effect on the [Ca2+]i decrement induced by TGFβ1: completely reverted
TGFβ1
  co-immunoprecipitation with TGFβ1: TGFβ1 was detected
  homo-oligomer formation: formed homo-dimers and homo-trimers
  hetero-dimer formation with TGFβ1: formed hetero-dimers not only between themselves, but also with TGFβ1
